Assay results from patent US4100346A, “Certain 7(o-amino-methyl- or methylaminomethylphenyl- or cyclohexadienyl- or thienylacetamide)-3[1-carboxymethyl-(or ethyl- or propyl-)-tetrazol-5-ylthiomethyl]-3-cephem-4-carboxylic acids” (Bristol-Myers Company, priority 1976, dated 1978).
In brackets after ≈: the same amount, converted by molar mass. Like-named read-outs stand apart in the source and are kept apart here.

Columns and labels:
Pasteurella multocida = assay: Growth inhibitory activity, antibiotic dilution technique; settings: read-out: Minimum inhibitory concentration
Bacteroides Fragilis = assay: Growth inhibitory activity, antibiotic dilution technique (obligate anaerobes); assay type: cell-based; settings: 3 strains, geometric mean when applicable, read-out: Minimum inhibitory concentration
Description: Antibiotic spectrum. […] Procedures were as follows:
c. Obligate anaerobes. The assay was performed on solid medium, consisting of Brain Heart Infusion Broth (BBL) supplemented with 5% defibrinated sheep blood and 1% Ionagar (Colab). […] The plates were incubated at 37° C. for 48 hours under the oxygen-free conditions attained with a Gas-Pak (BBL) Brewer jar system.

[1] = Antibiotic concentration in blood after intramuscular injection; settings: mouse, im, 20 mg/kg
Erwinia sp. = assay: Growth inhibitory activity, antibiotic dilution technique; settings: read-out: Minimum inhibitory concentration
Listeria monocytogenes = assay: as above; settings: read-out: Minimum inhibitory concentration
Escherichia coli [2] = assay: Effect of inoculum size on susceptibility of Enterobacteriaceae
Enterobacter cloacae = assay: as above
Streptococcus pneumoniae = assay: Intramuscular treatment of systemically infected mice; assay type: in vivo; settings: im, 3.5 h, read-out: PD50 /treatment
Excerpt: (§1) Treatment of Systemically Infected Mice. The procedures were identical with those published previously [Leitner et al., BL-S640, a Cephalosporin With a Broad Spectrum of Antibacterial Activity: Bioavailability and Therapeutic Properties in Rodents, Antimicrob. Agents Chemother. 7:306-310, (1975)], except that:
(§2) (a) the hog gastric mucin used in infections with Staphylococcus aureus No. 2 was purchased from American Laboratories, Inc., Omaha, Neb. (lot No. 154163) and b) that the medium used to suspend all other organisms contained 3% (rather than 4%) hog gastric mucin (type 1701W, Wilson Laboratories, Inc., Park Forest South, Ill.).
(§3) *Animals infected with penicillinase-producing staphyloccal strains (No.
(§4) and 3) were treated 0 and 2 hours after infection; the others were treate
(§5) 1 and 3.5 hours after infection.

Staphylococcus aureus [3] = assay: as above; assay type: in vivo; settings: im, read-out: PD50 /treatment
Excerpt: as §1, §2, §3, §4, §5

Streptococcus pyogenes = assay: as above; assay type: in vivo; settings: im, 3.5 h, read-out: PD50 /treatment
Excerpt: as §1, §2, §3, §4, §5

Staphylococcus Aureus [4] = assay: Effect of inoculum size on susceptibility of Staphylococcus aureus; assay type: cell-based; settings: for MIC: Staphylococcus aureus, geometric means, read-out: Minimum inhibitory concentration
Vibrio cholerae = assay: Growth inhibitory activity, antibiotic dilution technique; settings: read-out: Minimum inhibitory concentration
Proteus vulgaris = assay: Intramuscular treatment of systemically infected mice; assay type: in vivo; settings: im, 3.5 h, read-out: PD50 /treatment
Excerpt: as §1, §2
(§6) *Animals were treated twice; 1 and 3.5 hours after infection.

Klebsiella pneumoniae = assay: as above; assay type: in vivo; settings: im, 3.5 h, read-out: PD50 /treatment
Excerpt: as §1, §2, §6

Escherichia coli [5] = assay: as above; assay type: in vivo; settings: im, 3.5 h, read-out: PD50 /treatment
Excerpt: as §1, §2, §6

Proteus morganii = assay: as above; assay type: in vivo; settings: Morganella morganii, im, 3.5 h, read-out: PD50 /treatment
Excerpt: as §1, §2, §6

Providencia stuartii = assay: as above; assay type: in vivo; settings: im, 3.5 h, read-out: PD50 /treatment
Excerpt: as §1, §2, §6

Neisseria gonorrhoeae = assay: Growth inhibitory activity, antibiotic dilution technique

In the case of Cc1nnc(SCC2=C(C(=O)O)N3C(=O)[C@@H](NC(=O)Cn4cnnn4)[C@H]3SC2)s1 [Cefazolin], the MIC (Pasteurella multocida) is reported as 0.5 µg/mL (≈ 1.1 µM), the MIC (Bacteroides Fragilis) is reported as 50 µg/mL (≈ 110 µM) and the Cmax [1] is reported as 31000 ng/mL. The MIC (Erwinia sp.) was 1.5 µg/mL (≈ 3.3 µM), the MIC (Listeria monocytogenes) was 1.2 µg/mL (≈ 2.64 µM) and the MIC (Escherichia coli [2]; read-out: Minimum Inhibitory Concentration, Escherichia coli strain 1, A, Inoculum of 10^2 organisms) was 1 µg/mL (≈ 2.2 µM). The MIC (Escherichia coli [2]; read-out: Minimum Inhibitory Concentration, Escherichia coli strain 1, B, Inoculum of 10^6 organisms) was 4 µg/mL (≈ 8.8 µM), the MIC (Escherichia coli [2]; read-out: Minimum Inhibitory Concentration, Escherichia coli strain 2, A, Inoculum of 10^2 organisms) was 2 µg/mL (≈ 4.4 µM) and the MIC (Escherichia coli [2]; read-out: Minimum Inhibitory Concentration, Escherichia coli strain 2, B, Inoculum of 10^6 organisms) was 16 µg/mL (≈ 35.2 µM). The MIC (Escherichia coli [2]; read-out: Minimum Inhibitory Concentration, Escherichia coli strain 3, A, Inoculum of 10^2 organisms) was 1 µg/mL (≈ 2.2 µM), the MIC (Escherichia coli [2]; read-out: Minimum Inhibitory Concentration, Escherichia coli strain 3, B, Inoculum of 10^6 organisms) was 2 µg/mL (≈ 4.4 µM) and the MIC (Escherichia coli [2]; read-out: Minimum Inhibitory Concentration, Escherichia coli strain 4, A, Inoculum of 10^2 organisms) was 1 µg/mL (≈ 2.2 µM). For the same molecule, the MIC (Escherichia coli [2]; read-out: Minimum Inhibitory Concentration, Escherichia coli strain 4, B, Inoculum of 10^6 organisms) was 2 µg/mL (≈ 4.4 µM), the MIC (Escherichia coli [2]; read-out: Minimum Inhibitory Concentration, Escherichia coli strain 5, A, Inoculum of 10^2 organisms) was 1 µg/mL (≈ 2.2 µM) and the MIC (Escherichia coli [2]; read-out: Minimum Inhibitory Concentration, Escherichia coli strain 5, B, Inoculum of 10^6 organisms) was 2 µg/mL (≈ 4.4 µM). The MIC (Escherichia coli [2]; read-out: Minimum Inhibitory Concentration, Escherichia coli strain 6, A, Inoculum of 10^2 organisms) was 1 µg/mL (≈ 2.2 µM), the MIC (Escherichia coli [2]; read-out: Minimum Inhibitory Concentration, Escherichia coli strain 6, B, Inoculum of 10^6 organisms) was 2 µg/mL (≈ 4.4 µM) and the MIC (Escherichia coli [2]; read-out: Minimum Inhibitory Concentration, Escherichia coli strain 7, A, Inoculum of 10^2 organisms) was 1 µg/mL (≈ 2.2 µM). For the same molecule, the MIC (Escherichia coli [2]; read-out: Minimum Inhibitory Concentration, Escherichia coli strain 7, B, Inoculum of 10^6 organisms) was 2 µg/mL (≈ 4.4 µM), the MIC (Enterobacter cloacae; read-out: Minimum Inhibitory Concentration, Enterobacter cloacae strain 1, A, Inoculum of 10^2 organisms) was 2 µg/mL (≈ 4.4 µM) and the MIC (Enterobacter cloacae; read-out: Minimum Inhibitory Concentration, Enterobacter cloacae strain 1, B, Inoculum of 10^6 organisms) was > 250 µg/mL. For the same molecule, the MIC (Enterobacter cloacae; read-out: Minimum Inhibitory Concentration, Enterobacter cloacae strain 2, A, Inoculum of 10^2 organisms) was 32 µg/mL (≈ 70.4 µM), the MIC (Enterobacter cloacae; read-out: Minimum Inhibitory Concentration, Enterobacter cloacae strain 2, B, Inoculum of 10^6 organisms) was > 250 µg/mL and the MIC (Enterobacter cloacae; read-out: Minimum Inhibitory Concentration, Enterobacter cloacae strain 3, A, Inoculum of 10^2 organisms) was 8 µg/mL (≈ 17.6 µM). For the same molecule, the MIC (Enterobacter cloacae; read-out: Minimum Inhibitory Concentration, Enterobacter cloacae strain 3, B, Inoculum of 10^6 organisms) was 250 µg/mL (≈ 550 µM), the MIC (Enterobacter cloacae; read-out: Minimum Inhibitory Concentration, Enterobacter cloacae strain 4, A, Inoculum of 10^2 organisms) was 63 µg/mL (≈ 139 µM) and the MIC (Enterobacter cloacae; read-out: Minimum Inhibitory Concentration, Enterobacter cloacae strain 4, B, Inoculum of 10^6 organisms) was > 250 µg/mL. The MIC (Enterobacter cloacae; read-out: Minimum Inhibitory Concentration, Enterobacter cloacae strain 5, A, Inoculum of 10^2 organisms) was 8 µg/mL (≈ 17.6 µM), the MIC (Enterobacter cloacae; read-out: Minimum Inhibitory Concentration, Enterobacter cloacae strain 5, B, Inoculum of 10^6 organisms) was > 250 µg/mL and the ED50 (Streptococcus pneumoniae; Streptococcus pneumoniae strain 1, challenge 2 × 10^3 - 9 × 10^3, treated 1 and 3.5 hours after infection) was 0.39 mg/kg. For the same molecule, the ED50 (Streptococcus pneumoniae; Streptococcus pneumoniae strain 2, challenge 1 × 10^4 - 3 × 10^4, treated 1 and 3.5 hours after infection) was 0.57 mg/kg, the ED50 (Staphylococcus aureus [3]; 3.5 h, Staphylococcus aureus strain 1, challenge 2 × 10^5 - 3 × 10^5, treated 1 and 3.5 hours after infection) was 0.09 mg/kg and the ED50 (Staphylococcus aureus [3]; Staphylococcus aureus strain 2 (penicillinase-producing), challenge 1 × 10^9, treated 0 and 2 hours after infection) was 5 mg/kg. It also gave an ED50 (Staphylococcus aureus [3]; Staphylococcus aureus strain 3 (penicillinase-producing), challenge 5 × 10^8 - 7 × 10^9, treated 0 and 2 hours after infection) of 23 mg/kg, an ED50 (Streptococcus pyogenes; Streptococcus pyogenes strain 1, challenge 2 × 10^3 -6 × 10^3, treated 1 and 3.5 hours after infection) of 0.57 mg/kg and an ED50 (Streptococcus pyogenes; Streptococcus pyogenes strain 2, challenge 1 × 10^4 - 5 × 10^4, treated 1 and 3.5 hours after infection) of 0.27 mg/kg. For the same molecule, the MIC (Staphylococcus Aureus [4]; Lacking penicillinase, 3 strains, A, Inoculum of 10^2 organisms) was 0.13 µg/mL (≈ 0.286 µM), the MIC (Staphylococcus Aureus [4]; Lacking penicillinase, 3 strains, B, inoculum of 10^6 organisms) was 0.2 µg/mL (≈ 0.44 µM) and the MIC (Staphylococcus Aureus [4]; Penicillinase producer, 26 strains, A, Inoculum of 10^2 organisms) was 0.22 µg/mL (≈ 0.484 µM). For the same molecule, the MIC (Staphylococcus Aureus [4]; Penicillinase producer, 26 strains, B, inoculum of 10^6 organisms) was 0.79 µg/mL (≈ 1.74 µM), the “effect of cell concentration on growth inhibitory activity” value (Staphylococcus Aureus [4]; penicillinase-producing strains) was “moderately” and the MIC (Vibrio cholerae) was 4 µg/mL (≈ 8.8 µM). The ED50 (Proteus vulgaris; Proteus vulgaris strain 1, challenge 1×10^6 -2×10^6, treated 1 and 3.5 hours after infection) was 11 mg/kg, the ED50 (Proteus vulgaris; Proteus vulgaris strain 3, challenge 4×10^5, treated 1 and 3.5 hours after infection) was 8 mg/kg and the ED50 (Klebsiella pneumoniae; Klebsiella pneumoniae strain 1, challenge 4×10^4 -5×10^4, treated 1 and 3.5 hours after infection) was 16 mg/kg. It also gave an ED50 (Klebsiella pneumoniae; Klebsiella pneumoniae strain 7, challenge 9×10^2 -1×10^3, treated 1 and 3.5 hours after infection) of 94 mg/kg, an ED50 (Escherichia coli [5]; Escherichia coli strain 1, challenge 2×10^5 organisms, treated 1 and 3.5 hours after infection) of 1.9 mg/kg and an ED50 (Escherichia coli [5]; Escherichia coli strain 8, challenge 6×10^5 -4×10^6, treated 1 and 3.5 hours after infection) of 4.9 mg/kg. It also gave an ED50 (Escherichia coli [5]; Escherichia coli strain 9, challenge 7×10^3 -2×10^4, treated 1 and 3.5 hours after infection) of 5.3 mg/kg, an ED50 (Proteus morganii; Proteus morganii strain 1, challenge 1×10^5 -4×10^5, treated 1 and 3.5 hours after infection) of 62 mg/kg and an ED50 (Proteus morganii; Proteus morganii strain 2, challenge 2×10^6 -3×10^6, treated 1 and 3.5 hours after infection) of 140 mg/kg. The ED50 (Providencia stuartii; Providencia stuartii strain 2, challenge 1×10^6 ×5×10^6, treated 1 and 3.5 hours after infection) was 50 mg/kg, the ED50 (Providencia stuartii; Providencia stuartii strain 3, challenge 2×10^7, treated 1 and 3.5 hours after infection) was 70 mg/kg and the “susceptibility of Neisseria gonorrhoeae” value (Neisseria gonorrhoeae) was “equally susceptible”.
